Experimental data from patent US20030034248A1, “Electrodeposition baths containing boron-containing compounds and methods related thereto” (priority 2001, published 2003).

Test system: bacteria
Assay: Bacteria resistance testing: bacteria counts (spread plate, R2A agar) in infected electrodeposition ultrafiltrate permeate
Assay type: cell-based
Conditions: for Bacteria Count 3 day: plated at 3 days; for Bacteria Count 7 day: plated at 7 days; for Bacteria Count 10 day: plated at 10 days
Description: Infected ultrafiltrate from an online electrodeposition bath tank (containing E6100H, commercially available from PPG Industries, Inc.) having a bacterial count of 4.5×10^6 cfu/mL was used to inoculate filter-sterilized ultrafiltrate (“permeate”) collected from the same line. The infected ultrafiltrate was diluted by a factor of 10^4 into the sterile permeate. The infected permeate was added to reactors. The various acids listed below in the following Table 2 were prepared as 1 % solutions in water and tested at 2000, 1000, 500, 200, 100, and 50 ppm of active material. Reactors were rolled for 10 days at 32° C. and were plated for bacteria counts at 3, 7, and 10 days.
The enumeration of […] heterotrophs in the reactors utilized the standard spread plate method as described in Standard Methods for the Examination of Water and Wastewater, 1992, section 9215C. Bacterial counts were examined using R2A agar plates. 100 μL of a suitable dilution of sample was pipetted onto the surface of the media and spread with an alcohol and flame sterilized glass rod. The plates were inverted and incubated for 3 days at 32° C. with periodic examination. Colony forming units were counted on a New Brunswick Bactronic Colony Counter. A target of 30 to 300 cfu per plate was considered a valid count.

[1] = acid at 50 ppm of active material (boric acid: 8.9 ppm B), 32° C.
[2] = acid at 100 ppm of active material (boric acid: 17.8 ppm B), 32° C.
[3] = acid at 200 ppm of active material (boric acid: 35.5 ppm B), 32° C.
[4] = acid at 500 ppm of active material (boric acid: 89 ppm B), 32° C.
[5] = acid at 1000 ppm of active material (boric acid: 177.5 ppm B), 32° C.
[6] = acid at 2000 ppm of active material (boric acid: 355 ppm B), reactors rolled at 32° C.

Row | SMILES | Bacteria Count 3 day [1] | Bacteria Count 7 day [1] | Bacteria Count 10 day [1] | Bacteria Count 3 day [2] | Bacteria Count 7 day [2] | Bacteria Count 10 day [2] | Bacteria Count 3 day [3] | Bacteria Count 7 day [3] | Bacteria Count 10 day [3] | Bacteria Count 3 day [4] | Bacteria Count 7 day [4] | Bacteria Count 10 day [4] | Bacteria Count 3 day [5] | Bacteria Count 7 day [5] | Bacteria Count 10 day [5] | Bacteria Count 3 day [6] | Bacteria Count 7 day [6] | Bacteria Count 10 day [6] | levels at which the growth of bacteria is retarded (as compared to lactic acid in an analogous composition, summary of Table 2) [ppm]
1 | OB(O)O [Boric Acid] | 8.8 × 10^2 | 4.6 × 10^6 | 4.0 × 10^3 | 3.0 × 10^2 | 5.6 × 10^5 | 1.4 × 10^7 | 3.6 × 10^2 | 2.8 × 10^3 | 2.0 × 10^6 | <4.0 × 10^1 | <4.0 × 10^1 | <4.0 × 10^1 | <4.0 × 10^1 | <4.0 × 10^1 | <4.0 × 10^1 | <4.0 × 10^1 | <4.0 × 10^1 | <4.0 × 10^1 | ≥ 500
2 | CC(O)C(=O)O (stereo not shown) [Lactic Acid, reference compound] | 9.2 × 10^5 | 4.4 × 10^7 | 3.8 × 10^7 | 8.8 × 10^5 | 4.4 × 10^7 | 2.4 × 10^6 | 1.5 × 10^6 | 1.6 × 10^7 | 1.2 × 10^7 | 1.6 × 10^7 | 4.0 × 10^7 | 2.8 × 10^6 | 9.6 × 10^6 | 3.2 × 10^7 | <4.0 × 10^5 | 2.1 × 10^6 | 4.8 × 10^7 | 1.1 × 10^7 | 
